# In patent US11441029B1, “Packaging films, and methods of preparation thereof” (King Abdulaziz University, priority 2022, dated 2022):
# Tested on: gram-positive and gram-negative bacteria
# Experiment: Antimicrobial activity of films, bacteria not specified at the place
# Assay type: cell-based
# Protocol: Active cultures were prepared by inoculating freshly cultured bacteria or pure colony (24 hours (h)) into lysogeny broth (LB) broth, then incubated in a shaker for 24 h at 30° C. with 200 revolutions per minute (rpm). The optical density (OD) for each culture was set to 0.05, equivalent to 1-2×10^5 colony forming units/millilitre (CFU/mL) by adding LB broth. […] Thereafter, re-suspension was carried out for each sample using 4.6 mL of 0.85 wt. % sodium chloride. Serial dilution was conducted, and 100 microlitre (μL) for each dilution was transferred to LB agar plates. Then, those agar plates were allowed to undergo incubation for 24 h at 30° C. Gentamicin was used as a positive control, and pure PBS film were used as negative control for the microbial culture. […] The whole antimicrobial process was conducted in triplicate to obtain average values. The microbial population was calculated as log CFU per mL sample, and the actual number in each dilution was determined for dishes containing 30-300 colonies using Equation 1 as below: [formula] where C refers to total counts of bacteria in all retained dishes; V refers to volume used for sample dilution; n1 refers to number of retained dishes in first dilution; n2 refers to number of retained dishes in second dilution; D refers to dilution factor of first dilution.
compound,measurement,value
"[O-]n1ccccc1=S.[O-]n1ccccc1=S.[Zn+2] [SAN, zinc, bis[1-(hydroxy-.kappa.O)-2(1H)-pyridinethionato-.kappa.S2]-,(T-4)-]",antimicrobial activity (general statement),exhibited antimicrobial effects
